Data: publication PMC6646333 (Nature Communications, 2019)
Values after ≈ are worked out from the molar mass of the structure shown.

Legend:
VRE TH4937 = assay: MIC, broth microdilution, VRE TH4937; assay type: cell-based, vancomycin resistant Enterococcus faecalis; settings: for MIC, VRE TH4937: broth microdilution, 0.01% polysorbate 80
Procedure: (§1) MIC[18] was tested by broth microdilution according to CLSI guidelines. The state of all teixobactin analogs is amorphous, and the compounds are in the salt form of trifluoroacetates. Analogs were stored in DMSO in the concentration of 10 mg/ml. The test medium for most species of bacteria was cation adjusted Mueller–Hinton Broth containing 0.01% polysorbate 80 to prevent analogs binding to plastic surfaces. […] For the test of Streptococci, MHB contains 3% lysed horse blood (Cleveland Scientific, Bath, OH). The concentration of cell was ~5 × 10^5 cells ml^−1. […] Besides the standard strains from ATCC, all the clinical isolates are from 302 hospital. The assay was done three times to confirm results (n = 3).

MRSA TH4115 = assay: MIC, broth microdilution, MRSA TH4115; assay type: cell-based, Staphylococcus aureus; settings: for MIC, MRSA TH4115: broth microdilution, 0.01% polysorbate 80
Procedure: as §1

VRE TH4939 = assay: MIC, broth microdilution, VRE TH4939; assay type: cell-based, vancomycin resistant Enterococcus faecalis; settings: for MIC, VRE TH4939: broth microdilution, 0.01% polysorbate 80
Procedure: as §1

S. aureus TH4112 = assay: MIC, broth microdilution, S. aureus TH4112; assay type: cell-based, Staphylococcus aureus; settings: for MIC, S. aureus TH4112: broth microdilution, 0.01% polysorbate 80
Procedure: as §1

MRSA BAA-1695 = assay: MIC, broth microdilution, MRSA BAA-1695; assay type: cell-based, Staphylococcus aureus; settings: for MIC, MRSA BAA-1695: broth microdilution, 0.01% polysorbate 80
Procedure: as §1

E. faecalis TH4130 = assay: MIC, broth microdilution, E. faecalis TH4130; assay type: cell-based, Enterococcus faecalis; settings: for MIC, E. faecalis TH4130: broth microdilution, 0.01% polysorbate 80
Procedure: as §1

E. faecalis TH4132 = assay: MIC, broth microdilution, E. faecalis TH4132; assay type: cell-based, Enterococcus faecalis; settings: for MIC, E. faecalis TH4132: broth microdilution, 0.01% polysorbate 80
Procedure: as §1

E. faecalis TH4126 = assay: MIC, broth microdilution, E. faecalis TH4126; assay type: cell-based, Enterococcus faecalis; settings: for MIC, E. faecalis TH4126: broth microdilution, 0.01% polysorbate 80
Procedure: as §1

E. faecalis ATCC29212 = assay: MIC, broth microdilution, E. faecalis ATCC29212; assay type: cell-based, Enterococcus faecalis; settings: for MIC, E. faecalis ATCC29212: broth microdilution, 0.01% polysorbate 80
Procedure: as §1

MRSA ATCC33591 = assay: MIC, broth microdilution, MRSA ATCC33591; assay type: cell-based; settings: Staphylococcus aureus; broth microdilution (CLSI), MHB + 0.01% polysorbate 80; five independent experiments ± s.d. (n = 5)
Procedure: as §1

S. aureus ATCC29213 = assay: MIC, broth microdilution, S. aureus ATCC29213; assay type: cell-based; settings: Staphylococcus aureus, broth microdilution (CLSI), MHB + 0.01% polysorbate 80, five independent experiments ± s.d. (n = 5)
Procedure: as §1

MRSA ATCC 33591 = assay: Neutropenic mouse thigh infection model; settings: 50 mg /kg i.v., 2 h post infection
S. pneumoniae D39 = assay: Mouse septicemia protection model; settings: for survival number: 5 mg/kg i.v., 6 mice per group
MRSA = settings: ref J Med Chem, 2018, 61, 2009; cited from earlier work
Source text: page 6: Reply: Thanks for the reviewer’s kind comments. […] (please see the reference 34). In the paper published in Scientific Reports, they proposed that two teixobactin bind pyrophosphate-MurNAc and glutamic acid residue of one Lipid II respectively. Undeniably, this is an important discovery. Its structure model also explains experimental obervations that the pyrophosphate-MurNAc moiety is the minimal motif for binding. We selected the similar truncated lipid II i ...

[1] = Enterococcus, VRE, broth microdilution (CLSI), MHB + 0.01% polysorbate 80, 37 °C, 16–20 h, n = 3

Q: Which results are given for `CC1(C)S[C@@H]2[C@H](NC(=O)[C@H](N)c3ccccc3)C(=O)N2[C@H]1C(=O)O` [Ampicillin]?
A: MIC (VRE TH4937; [1]): > 32 µg/mL; MIC, VRE TH4937 (VRE TH4937; replicate 1 (Source Data)): >32 µg/mL; MIC, VRE TH4937 (VRE TH4937; replicate 2 (Source Data)): >32 µg/mL; MIC, VRE TH4937 (VRE TH4937; replicate 3 (Source Data)): >32 µg/mL; MIC (MRSA TH4115; Staphylococcus aureus, MRSA, broth microdilution (CLSI), MHB + 0.01% polysorbate 80, 37 °C, 16–20 h, n = 3): 32 µg/mL; MIC, MRSA TH4115 (MRSA TH4115; replicate 1 (Source Data)): 32 µg/mL (≈ 91.6 µM); MIC, MRSA TH4115 (MRSA TH4115; replicate 2 (Source Data)): 32 µg/mL (≈ 91.6 µM); MIC, MRSA TH4115 (MRSA TH4115; replicate 3 (Source Data)): 32 µg/mL (≈ 91.6 µM); MIC (VRE TH4939; [1]): > 32 µg/mL; MIC, VRE TH4939 (VRE TH4939; replicate 1 (Source Data)): >32 µg/mL; MIC, VRE TH4939 (VRE TH4939; replicate 2 (Source Data)): >32 µg/mL; MIC, VRE TH4939 (VRE TH4939; replicate 3 (Source Data)): >32 µg/mL; MIC (S. aureus TH4112; Staphylococcus aureus, TH4112, broth microdilution (CLSI), MHB + 0.01% polysorbate 80, 37 °C, 16–20 h, n = 3): 0.5 µg/mL; MIC, S. aureus TH4112 (S. aureus TH4112; replicate 1 (Source Data)): 0.5 µg/mL (≈ 1.43 µM); MIC, S. aureus TH4112 (S. aureus TH4112; replicate 2 (Source Data)): 0.5 µg/mL (≈ 1.43 µM); MIC, S. aureus TH4112 (S. aureus TH4112; replicate 3 (Source Data)): 0.5 µg/mL (≈ 1.43 µM); MIC (MRSA BAA-1695; Staphylococcus aureus, broth microdilution (CLSI), MHB + 0.01% polysorbate 80, 37 °C, 16–20 h, n = 3): > 32 µg/mL; MIC, MRSA BAA-1695 (MRSA BAA-1695; replicate 1 (Source Data)): >32 µg/mL; MIC, MRSA BAA-1695 (MRSA BAA-1695; replicate 2 (Source Data)): >32 µg/mL; MIC, MRSA BAA-1695 (MRSA BAA-1695; replicate 3 (Source Data)): >32 µg/mL; MIC (E. faecalis TH4130; Enterococcus faecalis, TH4130, broth microdilution (CLSI), MHB + 0.01% polysorbate 80, 37 °C, 16–20 h, n = 3): 16 µg/mL; MIC, E. faecalis TH4130 (E. faecalis TH4130; replicate 1 (Source Data)): 16 µg/mL (≈ 45.8 µM); MIC, E. faecalis TH4130 (E. faecalis TH4130; replicate 2 (Source Data)): 16 µg/mL (≈ 45.8 µM); MIC, E. faecalis TH4130 (E. faecalis TH4130; replicate 3 (Source Data)): 16 µg/mL (≈ 45.8 µM); MIC (E. faecalis TH4132; Enterococcus faecalis, TH4132, broth microdilution (CLSI), MHB + 0.01% polysorbate 80, 37 °C, 16–20 h, n = 3): 1 µg/mL; MIC, E. faecalis TH4132 (E. faecalis TH4132; replicate 1 (Source Data)): 1 µg/mL (≈ 2.86 µM); MIC, E. faecalis TH4132 (E. faecalis TH4132; replicate 2 (Source Data)): 1 µg/mL (≈ 2.86 µM); MIC, E. faecalis TH4132 (E. faecalis TH4132; replicate 3 (Source Data)): 1 µg/mL (≈ 2.86 µM); MIC (E. faecalis TH4126; Enterococcus faecalis, TH4126, broth microdilution (CLSI), MHB + 0.01% polysorbate 80, 37 °C, 16–20 h, n = 3): > 32 µg/mL; MIC, E. faecalis TH4126 (E. faecalis TH4126; replicate 1 (Source Data)): >32 µg/mL; MIC, E. faecalis TH4126 (E. faecalis TH4126; replicate 2 (Source Data)): >32 µg/mL; MIC, E. faecalis TH4126 (E. faecalis TH4126; replicate 3 (Source Data)): >32 µg/mL; MIC (E. faecalis ATCC29212; Enterococcus faecalis, ATCC29212, broth microdilution (CLSI), MHB + 0.01% polysorbate 80, 37 °C, 16–20 h, n = 3): 1 µg/mL; MIC, E. faecalis ATCC29212 (E. faecalis ATCC29212; replicate 1 (Source Data)): 1 µg/mL (≈ 2.86 µM); MIC, E. faecalis ATCC29212 (E. faecalis ATCC29212; replicate 2 (Source Data)): 1 µg/mL (≈ 2.86 µM); MIC, E. faecalis ATCC29212 (E. faecalis ATCC29212; replicate 3 (Source Data)): 1 µg/mL (≈ 2.86 µM); MIC (MRSA ATCC33591): > 16 µg/mL; MIC (S. aureus ATCC29213): 2 µg/mL

Q: Which “Log C.F.U. / mouse thigh” value (MRSA ATCC 33591; mouse 1) does the source give for `CN[C@H](CC(C)C)C(=O)N[C@H]1C(=O)N[C@@H](CC(N)=O)C(=O)N[C@H]2C(=O)N[C@H]3C(=O)N[C@H](C(=O)N[C@H](C(=O)O)c4cc(O)cc(O)c4-c4cc3ccc4O)[C@H](O)c3ccc(c(Cl)c3)Oc3cc2cc(c3O[C@@H]2O[C@H](CO)[C@@H](O)[C@H](O)[C@H]2O[C@H]2C[C@](C)(N)[C@H](O)[C@H](C)O2)Oc2ccc(cc2Cl)[C@H]1O` [Vancomycin] here?
A: 3.903 Log C.F.U. / mouse thigh

Q: And the “Log C.F.U. / mouse thigh” value (MRSA ATCC 33591; mouse 2)?
A: 3.176 Log C.F.U. / mouse thigh

Q: What about the “Log C.F.U. / mouse thigh” value (MRSA ATCC 33591; mouse 3) of the same compound?
A: 3.748 Log C.F.U. / mouse thigh

Q: What about the survival number (S. pneumoniae D39; 24 h post-infection) of the same compound?
A: 6

Q: And the survival number (S. pneumoniae D39; 36 h post-infection)?
A: 6

Q: What about the survival number (S. pneumoniae D39; 48 h post-infection) of the same compound?
A: 6

Q: What about the “Survival rate 48 h after infection” value (S. pneumoniae D39; single dose 5 mg kg^−1 i.v., 1 h post infection, positive control, six female mice per group) of the same compound?
A: 100%

Q: What does the source list for Arg10-teixobactin?
A: Loss of potency compared with teixobactin (MRSA): more than 4 fold; MIC against MRSA (MRSA): 2 µg/mL
